The source of these data is ChEMBL document CHEMBL6096667, “Design, synthesis and biological evaluation of biaryl amide derivatives as modulators of multi-drug resistance” (Eur J Med Chem, 2025).

The IC50 is the concentration that gives 50% inhibition. What is called inhibition is the drop in the measured response relative to a control, in per cent.

Where only a bound is given, the exact number is not on record here.

Assay [1] concerns A2780/Taxol. As to the kind of experiment: Inhibition of cell proliferation of human Paclitaxel-resistant A2780/T cells incubated for 48 hrs in presence of PTX by MTT assay. The format is functional, cell-based.
Assay [2] concerns A2780/Taxol. Nature of the assay: Inhibition of cell proliferation of human Paclitaxel-resistant A2780/T cells at 1 uM incubated for 48 hrs in presence of PTX by MTT assay relative to control. The format is functional. On the technique in general: Tetrazolium assays rely on reduction of a dye to a coloured formazan, in cell work by metabolically active cells.
The subject of assay [3] is A2780/Taxol. As to the kind of experiment: Inhibition of cell proliferation of human Paclitaxel-resistant A2780/T cells at 10 uM incubated for 48 hrs in presence of PTX by MTT assay relative to control. The format is functional.

Regarding `Cn1c(C(=O)NCc2ccc(-c3ccccc3)cn2)cc2ccccc21`, the IC50 with A2780/Taxol [1] is > 50 µM. Also, the inhibition at 1 µM with A2780/Taxol [2] came to 11%. The inhibition at 10 µM in the assay with A2780/Taxol [3] came to 37%.

On to `O=C(Cc1cccnc1)Nc1ccc(-c2ccccc2)cn1`, for which, in the assay with A2780/Taxol [1], the IC50 was > 50 µM. Also, the inhibition at 1 µM with A2780/Taxol [2] was determined as 39%. Moreover, the inhibition at 10 µM in the assay on A2780/Taxol [3] came to 34%.

Regarding `Cc1ccc(C(=O)NCc2ccc(-c3ccccc3)cn2)cn1`, the IC50 with A2780/Taxol [1] is > 50 µM. Besides, the inhibition at 1 µM with A2780/Taxol [2] was found to be 12%. The inhibition at 10 µM with A2780/Taxol [3] was determined as 35%.

As for `O=C(Nc1cccnc1)Nc1ccc(-c2ccccc2)cn1`, the IC50 with A2780/Taxol [1] was > 50 µM. Further, the inhibition at 1 µM in the assay with A2780/Taxol [2] is 10%. Moreover, in the assay with A2780/Taxol [3], the inhibition at 10 µM is 30%.

`O=C(NCc1ccc(-c2ccccc2)cn1)c1ccc(F)c(F)c1`: the IC50 in the assay on A2780/Taxol [1] stood at 20 µM. For the same compound, the inhibition at 1 µM in the assay on A2780/Taxol [2] came out at 22%. Moreover, the inhibition at 10 µM with A2780/Taxol [3] stood at 46%.

Consider `O=C(NCc1ccc(-c2ccccc2)cn1)c1ccc(Br)nc1`, for which the IC50 in the assay with A2780/Taxol [1] is > 50 µM. Besides, in the assay with A2780/Taxol [2], the inhibition at 1 µM was found to be 12%. The inhibition at 10 µM in the assay with A2780/Taxol [3] was determined as 37%.

In the case of `COc1cc(C(=O)NCc2ccc(-c3ccccc3)cn2)cc(OC)c1OC`, the IC50 in the assay on A2780/Taxol [1] worked out at 22.9 µM. Further, in the assay on A2780/Taxol [2], the inhibition at 1 µM was 10%. Also, the inhibition at 10 µM in the assay with A2780/Taxol [3] came out at 51%.

Take `O=C(NCc1ccc(-c2ccccc2)cn1)c1c(F)c(F)c(F)c(F)c1F`: the IC50 in the assay with A2780/Taxol [1] was > 50 µM. The inhibition at 1 µM in the assay on A2780/Taxol [2] worked out at 13%. Also, the inhibition at 10 µM in the assay on A2780/Taxol [3] is 39%.

As to `O=C(NCc1ccc(-c2ccccc2)cn1)c1cccnc1`, in the assay on A2780/Taxol [1], the IC50 amounted to 30.5 µM. Also, in the assay on A2780/Taxol [2], the inhibition at 1 µM stood at 32%. The inhibition at 10 µM in the assay with A2780/Taxol [3] stood at 65%.

Consider `Cn1cc(C(=O)NCc2ccc(-c3ccc4c(c3)c3ccccc3n4-c3ccccc3)cn2)c2ccccc21`, for which the IC50 with A2780/Taxol [1] is > 50 µM. The inhibition at 1 µM in the assay with A2780/Taxol [2] is 14%. Also, in the assay with A2780/Taxol [3], the inhibition at 10 µM was determined as 28%.

As for `Cn1cc(C(=O)NCc2ccc(-c3ccc(F)cc3)cn2)c2ccccc21`, the IC50 in the assay on A2780/Taxol [1] was > 50 µM. Moreover, the inhibition at 1 µM in the assay with A2780/Taxol [2] came out at 25%. In addition, the inhibition at 10 µM in the assay with A2780/Taxol [3] is 63%.

Regarding `Cn1cccc1C(=O)NCc1ccc(-c2ccccc2)cn1`, in the assay on A2780/Taxol [1], the IC50 is > 50 µM. In the assay with A2780/Taxol [2], the inhibition at 1 µM worked out at 10%. In addition, the inhibition at 10 µM with A2780/Taxol [3] is 30%.

For `O=C(Cc1cccnc1)NCc1ccc(-c2ccccc2)cn1`, in the assay on A2780/Taxol [1], the IC50 is > 50 µM. In addition, the inhibition at 1 µM in the assay on A2780/Taxol [2] was 33%. The inhibition at 10 µM with A2780/Taxol [3] was 42%.

On to `O=C(/C=C/c1cccnc1)NCc1ccc(-c2ccccc2)cn1`, for which the IC50 in the assay with A2780/Taxol [1] turned out to be 22.1 µM. Besides, the inhibition at 1 µM in the assay with A2780/Taxol [2] stood at 33%. For the same compound, the inhibition at 10 µM with A2780/Taxol [3] was 38%.

With `O=C(NCc1ccc(-c2ccccc2)cn1)c1cncnc1`, the IC50 with A2780/Taxol [1] stood at 32.7 µM. Further, in the assay with A2780/Taxol [2], the inhibition at 1 µM was 24%. The inhibition at 10 µM in the assay with A2780/Taxol [3] was found to be 61%.

`O=S(=O)(Nc1ccc(-c2ccccc2)cn1)c1cccnc1`: the IC50 in the assay with A2780/Taxol [1] stood at 18.7 µM. For the same compound, the inhibition at 1 µM in the assay with A2780/Taxol [2] is 7%. Also, the inhibition at 10 µM with A2780/Taxol [3] came to 37%.

In the case of `CCCCc1ccc(-c2ccc(CNC(=O)c3cn(C)c4ccccc34)nc2)cc1`, the IC50 in the assay with A2780/Taxol [1] was > 50 µM. Also, the inhibition at 1 µM with A2780/Taxol [2] was 37%. Moreover, in the assay on A2780/Taxol [3], the inhibition at 10 µM was 52%.

With `Cn1cc(C(=O)NCc2ccc(-c3ccco3)cn2)c2ccccc21`, in the assay on A2780/Taxol [1], the IC50 was > 50 µM. Moreover, in the assay with A2780/Taxol [2], the inhibition at 1 µM was found to be 20%. In addition, the inhibition at 10 µM with A2780/Taxol [3] is 32%.

As for `O=C(NCc1ccc(-c2ccccc2)cn1)c1ccc2cccnc2c1`, in the assay with A2780/Taxol [1], the IC50 amounted to 18.3 µM. Besides, in the assay with A2780/Taxol [2], the inhibition at 1 µM came to 31%. Also, in the assay with A2780/Taxol [3], the inhibition at 10 µM was determined as 67%.

With `O=C(NCc1ccc(-c2ccccc2)cn1)c1ccc(C(F)(F)F)nc1`, the IC50 in the assay on A2780/Taxol [1] is > 50 µM. In addition, the inhibition at 1 µM in the assay on A2780/Taxol [2] stood at 9%. Moreover, in the assay on A2780/Taxol [3], the inhibition at 10 µM is 31%.

As to `Cn1cc(C(=O)NCc2ccc(-c3cccc(F)c3)cn2)c2ccccc21`, the IC50 in the assay on A2780/Taxol [1] was > 50 µM. In the assay with A2780/Taxol [2], the inhibition at 1 µM was 8%. The inhibition at 10 µM in the assay on A2780/Taxol [3] came to 33%.
